Laboratory results published in US8329703B2, “Pyrazole compounds” (XTL Biopharmaceuticals Ltd., priority 2005, dated 2012).
Read-outs that look alike come from different tables or passages of the source.

Key:
[1] = tested on: HCV RNA (HCV Replicon) in Huh-Luc-Neo cells; experiment: HCV Replicon RNA Assay (Taqman quantitative PCR); assay type: cell-based; conditions: Hepatitis C virus, 48 h, 2 compound treatments over 48 h, no unit printed in table (b307 gives IC50s in μM)
Protocol: (§1) The identification of inhibitors of HCV replication and/or proliferation has been facilitated by the development of a cell based system to study HCV replication and assay for HCV inhibitors. Inhibition of HCV replication may be performed using the HCV Replicon Assay developed in the laboratories of Bartenschlager (Lohman et al, Science 285, 110-113, 1999) and Rice (Blight et al, Science 290, 1972-1974, 2000). The assay is performed using the Huh-Luc-Neo cell line (Lohman et al, Science 285, 110-113, 1999). Huh-Luc-Neo cells are a human hepatoma cell line (Huh-7) stably expressing a bi-cistronic subgenomic replicon containing the HCV IRES in which the […] of HCV had been deleted and replaced by a construct containing sequences coding for the firefly luciferase reporter gene, the neomycin selectable marker and the EMCV IRES to direct expression of a truncated HCV genome expressing the […] NS3, NS4A, NS4B, NS5A, and NS5B. HCV targets through which inhibitors could act to inhibit replication include the NS3 protease, the helicase/ATPase, NS5A, the NS5B-RNA dependent RNA polymerase, and the HCV IRES.
(§2) Expression of HCV IRES driven luciferase reporter activity and HCV RNA is measured to obtain indirect and direct measures of replication of HCV RNA respectively. Inhibitors of HCV replication and/or proliferation are determined by initially identifying molecules that inhibit expression of the HCV IRES driven luciferase reporter in this HCV Replicon Luciferase Assay. Cell viability assays and control cell based luciferase assays are then run on hits identified in the HCV Replicon Luciferase Assay to eliminate cytoxic compounds and non-specific compounds which act by inhibiting the luciferase enzyme.
(§3) Day 0, Cell Seeding and Compound Treatment: Huh-Luc-Neo Cells are seeded at 25,000/well in an opaque-walled 96 plate with Growth Medium (DMEM phenol red free+PS+2 mM glutamine; 100 μl/well). The compounds to be tested are added to the experimental wells (10 μl/well at 10× assay concentration) and the cells are then incubated (5% CO2, 37° C.).
Day 1, Media Change and Compound Treatment: 24 hours after the initial compound treatment the cell culture media is aspirated from the wells and fresh Growth Medium is added (DMEM phenol red free+PS+2 mM glutamine; 100 μl/well). The compounds to be tested are then added to the appropriate experimental wells (10 μl/well at 10× assay concentration) and the cells are then incubated (5% CO2, 37° C.) for an additional 24 hrs.
Day 2, RNA Isolation and cDNA Synthesis: The cells are washed with 1× Phosphate Buffered Saline (PBS) once.
(§4) Day 3, Quantitative PCR Based Measurement of HCV RNA (Taqman Assay): Quantitative PCR analysis to measure HCV RNA expression from cDNA synthesized on Day 2 is performed using the ABI 9700 HT Sequence Detection System (Applied Biosystems) as previously described (Lohman et al, Science 285, 110-113, 1999). The data is analyzed and IC50s are determined using GraphPad Prism 4 software. Hits validated in the Replicon RNA Assay have IC50s<8.0 μM and show <30% inhibition of Cell Viability at a compound concentration of 50 μM (Cell Titer Glow Assay, cell viability assay conditions identical to HCV Replicon RNA Assay conditions).

[2] = tested on: Huh-Luc-Neo cells; experiment: Cell Titer-Glo Cell Viability Assay; assay type: cell-based, human; conditions: for Toxicity % Inhibition at 50 μM (2 doses): inhibition of cell viability at 50 μM, conditions identical to HCV Replicon RNA Assay; for Toxicity % Inhibition at 100 μM (1 dose): inhibition of cell viability at 100 μM, conditions identical to HCV Replicon Luciferase Assay (48 h)
Protocol: (§5) Day 2, Reagent Preparation and Luciferase Assay: The Bright-Glo Luciferase Assay Buffer (Promega) is thawed and equilibrated to room temperature prior to use. The lyophilized Bright-Glo Luciferase Assay Substrate is equilibrated to room temperature prior to use. 10 ml of Bright-Glo Luciferase Assay Buffer is transferred to 1 vial of Bright-Glo Luciferase Assay Substrate bottle and mixed by gently with a Vortex. 100 ul of Bright-Glo Luciferase Assay reagent (Bright-Glo Luciferase Assay Buffer+Bright-Glo Luciferase Assay Substrate Mixture) is added to each well. The well contents are mixed for 5 min. on an orbital shaker at room temperature to induce cell lysis and the luminescence is then measured using a luminometer. The data is analyzed and IC50s are determined using GraphPad Prism 4 software. Hits validated in the Replicon Luciferase assay have IC50s<8.0 μM and show <30% inhibition of Cell Viability at a compound concentration of 100 μM (Cell Titer Glow Assay, cell viability assay conditions identical to HCV Replicon Luciferase Assay conditions).
as §4
Day 0, Cell Seeding and Compound Treatment: Huh-Luc-Neo Cells are seeded at 25,000/well in an opaque-walled 96 plate with Growth Medium (DMEM phenol red free+PS+2 mM glutamine; 100 ul/well).
Day 2, Reagent Preparation and Assay: The CellTiter-Glo Buffer is thawed and equilibrated to room temperature prior to use. The lyophilized CellTiter-Glo Substrate is equilibrated to room temperature prior to use. 10 ml of CellTiter-Glo Buffer is transferred to 1 vial of CellTiter-Glo Substrate and mixed by gently with a Vortex. 100 μl of CellTiter-Glo Assay reagent (CellTiter-Glo Buffer+CellTiter-Glo Substrate Mixture) is added to each well. The well contents are mixed for 5 min. on an orbital shaker at room temperature to induce cell lysis and the luminescence is then measured using a luminometer.

[3] = tested on: HCV Replicon (HCV IRES driven luciferase reporter) in Huh-Luc-Neo cells; experiment: HCV Replicon Luciferase Assay; assay type: cell-based; conditions: Hepatitis C virus, 48 h
Protocol: as §1, §2
as §3, with “C.) for 48 h.” for “C.).”
as §5

[4] = Huh-Luc-Neo cells, no unit printed in table (b301 gives IC50s in μM), read-out: Luciferase IC50
[5] = read-out: Luciferase IC50, Huh-Luc-Neo cells, 48 h, no unit printed in table (b301 gives IC50s in μM)

SMILES | IC50 [1] [µM] | Toxicity % Inhibition at 50 μM (2 doses) [2] [%] | Toxicity % Inhibition at 100 μM (1 dose) [2] [%] | IC50 [3, 4] [µM] | IC50 ([3]; read-out: Luciferase IC50) [µM] | IC50 [3, 5] [µM]
Cc1ccc(O)c(-c2nn(C)cc2C#Cc2ccc(N)cc2)c1 [VQ_23714] | 0.1 | 33.4 | 31.5 | 1.16 | – | –
Cn1cc(C#Cc2ccc(N)cc2)c(-c2cc(Cl)ccc2O)n1 [VQ_23720] | 0.3 | 32.6 | 49.2 | 1.28 | – | –
Cc1cc(O)c(-c2nn(C)cc2C#CCCCC#N)cc1Cl [VQ_24691] | 0.09 | 28.3 | 21.1 | 5.13 | – | –
Cn1nc(-c2ccccc2O)c(C#CCCCC#N)c1-c1ccccc1 [VQ_30716] | 0.11 | 6.8 | 13.7 | 3.96 | – | –
Cn1cc(C#CC(C)(C)C)c(-c2cc([N+](=O)[O-])ccc2OCc2c(F)cccc2F)n1 [VQ_33518] | 0.42 | 22.8 | 40.4 | 1.85 | – | –
Cn1cc(CCC(C)(C)C)c(-c2cc(NC(=O)c3cccc(Cl)c3F)ccc2O)n1 [VQ_34072] | 1.09 | 6.2 | 4.2 | 2.87 | – | –
COc1ccc(O)c(-c2nn(C)cc2C#CC(C)(C)C)c1 [VQ_34145] | 0.82 | 13.1 | 19.8 | 1.87 | – | –
Cn1nc(-c2cc(Br)ccc2O)c(C#CC(C)(C)C)c1C#CCCCC#N [VQ_34298] | 3.86 | 23.9 | 18.3 | 5.5 | – | –
Cn1cc(C#CC(C)(C)C)c(-c2cc(C#Cc3ccc(Cl)cc3)ccc2O)n1 [VQ_34394] | 1.07 | 24.5 | 31.8 | 4.8 | – | –
Cn1cc(C#CC(C)(C)C)c(-c2cc(C#CCC3CCCCC3)ccc2O)n1 [VQ_34395] | 0.68 | 23.6 | 45.4 | 3.7 | – | –
Cn1cc(C#CC2CC2)c(-c2cc(Br)ccc2O)n1 [VQ_34432] | 0.82 | 8.2 | 45.5 | 11.5 | – | –
Cn1cc(C#CC(C)(C)C)c(-c2cc(-c3cccc(Cl)c3)ccc2O)n1 [VQ_35543] | 2.16 | 8.2 | 25.3 | 10.1 | – | –
Cn1cc(C#CC(C)(C)C)c(-c2cc(NC(=O)c3ccc(Cl)c(Cl)c3)ccc2O)n1 [VQ_35556] | 0.99 | 13.7 | 28.8 | 9.3 | – | –
Cn1cc(C#CC(C)(C)C)c(-c2cc(NC(=O)c3cccc(Cl)c3)ccc2O)n1 [VQ_35559] | 1.98 | 15.8 | 24.2 | 9.5 | – | –
CC(=O)c1ccc(N2CCN(C(=O)c3c(C#CC(C)(C)C)c(-c4cc(Cl)ccc4O)nn3C)CC2)cc1 [VQ_36649] | 0.4 | 12.1 | 7.3 | 9.7 | – | –
C=CCNc1ccc([N+](=O)[O-])cc1-c1nn(C)cc1C#CC(C)(C)C [VQ_36658] | 0.4 | 38.8 | 21.8 | 0.04 | – | –
Cn1cc(C#CC(C)(C)C)c(-c2cc([N+](=O)[O-])ccc2NCc2cc(F)cc(F)c2)n1 [VQ_36659] | 0.3 | 21.9 | 13.0 | – | 0.04 | –
Cn1cc(C#CC(C)(C)C)c(-c2cc([N+](=O)[O-])ccc2NCC(C)(C)CNc2ccc([N+](=O)[O-])cc2-c2nn(C)cc2C#CC(C)(C)C)n1 [VQ_36660] | 0.59 | 15.8 | 15.3 | – | – | 10.4
Cn1cc(C#CC(C)(C)C)c(-c2cc([N+](=O)[O-])ccc2NC2CCCCC2)n1 [VQ_36661] | 0.55 | 14.4 | 9.5 | 0.63 | – | –
Cn1cc(C#CC(C)(C)C)c(-c2cc([N+](=O)[O-])ccc2NCc2c(F)cccc2F)n1 [VQ_36665] | 0.72 | 25.6 | 12.8 | 0.03 | – | –
CC(Nc1ccc([N+](=O)[O-])cc1-c1nn(C)cc1C#CC(C)(C)C)c1ccccc1 (stereo not drawn) [VQ_36666] | 0.38 | 19.0 | 12.9 | 0.35 | – | –
Cc1cnc(Nc2ccc([N+](=O)[O-])cc2-c2nn(C)cc2C#CC(C)(C)C)s1 [VQ_36669] | 0.9 | 26.7 | 23.2 | 0.01 | – | –
Cn1cc(C#CC(C)(C)C)c(-c2cc([N+](=O)[O-])ccc2NCCCNc2ccc([N+](=O)[O-])cc2-c2nn(C)cc2C#CC(C)(C)C)n1 [VQ_36673] | 0.42 | 19.7 | 15.9 | – | – | 2.09
Cn1cc(-c2ccc(O)c(-c3nn(C)cc3C#CC(C)(C)C)c2)cn1 [VQ_95538] | 1.35 | 6.1 | 24.3 | 9.8 | – | –
